The record followed here is patent US20220289657A1, “COMPOSITION FOR PREVENTING OR TREATING BACTERIAL INFECTIOUS DISEASE COMPRISING 4-GINGEROL DERIVATIVE COMPOUND AS ACTIVE INGREDIENT” (KOREA UNIVERSITY RESEARCH AND BUSINESS FOUNDATION, SEJONG …, priority 2019, published 2022).

Read-outs that look alike come from different tables or passages of the source. Marks after values point to notes of the source that are not given here.

Experiment [1] has as its target T1, RhlR (Pseudomonas aeruginosa, UniProt P54292).
T1 construct: expressed in transfected cells; host or cells: E. coli sdiA variant co-transformed with pJN105R and pSC11 (RhlA::lacZ)
As to the kind of experiment: cell-based. Conditions: for Relative RhIR Activity (%) Agonism 100 / Relative RhIR Activity (%) Agonism 1000: Table 3; for Relative RhIR Activity (%) Agonism 1000: 1000 (μM); for remaining activity at 10 µM: read-out: Relative RhIR Activity (%) Antagonism 10, Table 3; for activity at 100 µM: read-out: Relative RhlR activity Agonism, Table 2; for Relative RhIR activity (%) Agonism / Relative RhIR activity (%) Antagonism: Table 4, concentration not given.

Experiment [2] deals with Pseudomonas aeruginosa. As to the kind of experiment: Static biofilm formation assay (crystal violet). Particulars: for activity at 10 µM / activity at 100 µM: Pseudomonas aeruginosa, 24 h, Table 3; for activity at 10 µM / activity at 100 µM / biofilm formation compared with a control (in words): static; for activity at 10 µM: read-out: Relative biological activity (%) Biofilm formation 10; for activity at 100 µM: read-out: Relative biological activity (%) Biofilm formation 100; for biofilm formation compared with a control (in words): 100 μM; for Relative biological activity (%) Biofilm formation: Table 4, concentration not given. The experiment is classed as cell-based. How it is done: (§1) Pseudomonas aeruginosa (P. aeruginosa) (OD 595 nm=1.0) was cultured overnight, and diluted in an AB medium (1:20; 300 mM NaCl, 50 mM MgSO4, 0.2% vitamin-free casamino acids, 10 mM potassium phosphate, 1 mM L-arginine, and 1% glucose, pH 7.5) together with a positive control or compound (0100 μM) in a borosilicate bottle. The resulting mixture was incubated without shaking at 37° C. for 24 hours, and to measure growth inhibition activity. OD 595 nm of the suspended culture was measured using a multimode plate reader. Biofilm cells attached to the bottle were washed twice with phosphate-buffered saline (PBS; 137 mM NaCl, 2.7 mM KCl, 10 mM Na2HPO4, and 2 mM KH2PO4, pH 7.2). Afterward, the remaining biofilm cells were stained with 0.1% crystal violet for 10 minutes, and to remove the unbound crystal violet, washed with deionized water. The crystal violet […] to the biofilm cells was eluted with 100% ethanol, and the OD of the eluted ethanol sample was measured at 545 nm using a multimode plate reader.

Experiment [3] deals with Pseudomonas aeruginosa. As to the kind of experiment: Bacterial growth under static condition (OD 595 nm of suspended culture). The experiment is classed as cell-based. Particulars: for activity at 10 µM / activity at 100 µM: Pseudomonas aeruginosa, 24 h, Table 3; for activity at 10 µM: read-out: Relative biological activity (%) Bacterial growth 10; for activity at 100 µM: read-out: Relative biological activity (%) Bacterial growth 100; for Relative biological activity (%) Bacterial growth: Table 4, concentration not given; for effect on cell growth (in words): 100 PM [sic] (100 μM). As for the experimental part: as §1

The test system of experiment [4] is P. aeruginosa. In words: Rhamnolipid production assay. The experiment is classed as cell-based, Pseudomonas aeruginosa. Particulars: for activity at 10 µM / activity at 100 µM: Pseudomonas aeruginosa, 24 h, Table 3; for activity at 10 µM: read-out: Relative biological activity (%) Rhamnolipid production 10; for activity at 100 µM: read-out: Relative biological activity (%) Rhamnolipid production 100; for Relative biological activity (%) Rhamnolipid production: Table 4, concentration not given. As for the experimental part: P. aeruginosa (OD 595 nm=1.0) cultured overnight was inoculated in an AB medium (1:100) with a positive control or compound (0100 μM), and incubated using a shaking culture for 24 hours at 37° C. The cell culture was centrifuged for 5 minutes at 4° C. and 12,000 g. Rhamnolipids were extracted twice by mixing 200 μL of a supernatant and 400 μL of 100% diethyl ether (JUNSEI, Tokyo, Japan). The supernatant was transferred to a new tube and evaporated. A dried sample was eluted with 20 μL of deionized water, and reacted with 180 μL of an Orcinal solution (0.19% Orcinal (Sigma-Aldrich) in 53% H2SO4). The reaction mixture was heated for 30 minutes at 80° C., and cooled for 15 minutes at room temperature. The amount of rhamnolipids was measured at OD 421 nm, and normalized in the cell culture solution at OD 595 nm using a multimode plate reader.

[5] abbreviates: Table 2, footnotes not given, 100 μM per Table 3, lower = stronger antagonism.
[6] abbreviates: read-out: Relative RhIR Activity (%) Antagonism 100, Table 3, 100 (μM).
Where [7] appears, read: footnotes not given, matches the 100 column of Table 3.
[8] abbreviates: read-out: Relative RhlR activity Antagonism, Table 2, footnotes not given, 100 μM per Table 3, lower = stronger antagonism.

T1 sequence (P54292 whole entry): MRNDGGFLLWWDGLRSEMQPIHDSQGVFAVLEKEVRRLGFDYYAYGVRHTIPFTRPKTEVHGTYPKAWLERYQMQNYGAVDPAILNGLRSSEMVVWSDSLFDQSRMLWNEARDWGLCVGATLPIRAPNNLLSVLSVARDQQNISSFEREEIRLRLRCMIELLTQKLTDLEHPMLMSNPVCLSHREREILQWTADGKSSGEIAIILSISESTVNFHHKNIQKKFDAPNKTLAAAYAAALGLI

As for `CCCC(O)CC(=O)/C=C/c1ccc(F)c(F)c1` (centres unmarked) [Compound 11o, (E)-1-(3,4-Difluorophenyl)-5-hydroxyoct-1-en-3-one], the “Relative RhlR activity Antagonism” value in experiment [1] (setting [5]) is listed as 20** %. In addition, the “Relative RhlR activity Agonism” value in experiment [1] (Table 2, footnotes not given, matches the 100 column of Table 3) is 2** %. The “Relative RhIR Activity (%) Agonism 100” value in experiment [1] (100 (μM)) was 2** %. Besides, the “Relative RhIR Activity (%) Agonism 1000” value in experiment [1] was 5** %. In addition, the remaining activity at 10 µM in experiment [1] was found to be 60%. Moreover, the remaining activity at 100 µM in experiment [1] (setting [6]) and in experiment [1] (setting [8]) was 20% throughout. For the same molecule, the activity at 100 µM turned out to be 2% in experiment [1] (setting [7]), 53% in experiment [2], 105% in experiment [3] and 50% in experiment [4]. The activity at 10 µM was found to be 72% in experiment [2], 101% in experiment [3] and 63% in experiment [4]. Also, the “biofilm formation compared with a control (in words)” value in experiment [2] is listed as “significantly inhibited”.

For `CCCCCC(=O)/C=C/c1ccc(F)c(F)c1` [Compound 13a, (E)-1-(3,4-Difluorophenyl)oct-1-en-3-one], in experiment [1] (100 (μM)), the “Relative RhIR Activity (%) Agonism 100” value is 4** %. Also, in experiment [1], the “Relative RhIR Activity (%) Agonism 1000” value was 3** %. Also, the remaining activity at 10 µM in experiment [1] is 53%. The remaining activity at 100 µM in experiment [1] (setting [6]) and in experiment [1] (setting [8]) was 51% throughout. Also, the activity at 100 µM in experiment [1] (setting [7]) was 4%; in experiment [2] it was 61%; in experiment [3], 103%; in experiment [4], 62%. The activity at 10 µM is 80% in experiment [2], 103% in experiment [3] and 64% in experiment [4]. For the same molecule, the “biofilm formation compared with a control (in words)” value in experiment [2] is reported as “significantly inhibited”.

As to `CCCCCC(=O)C#Cc1ccc(O)c(OC)c1` [Compound 21, 1-(4-Hydroxy-3-methoxyphenyl)oct-1-yn-3-one], in experiment [1] (setting [5]), the “Relative RhlR activity Antagonism” value was 29** %. Also, in experiment [1], the “Relative RhIR activity (%) Agonism” value is listed as 3** % and the “Relative RhIR activity (%) Antagonism” value is reported as 29** %. Further, in experiment [1] (setting [7]), the activity at 100 µM worked out at 3%. In experiment [1] (setting [8]), the remaining activity at 100 µM is 29%. For the same molecule, the “Relative biological activity (%) Biofilm formation” value in experiment [2] was 72* %. Moreover, the “Relative biological activity (%) Bacterial growth” value in experiment [3] came to 102%. Further, in experiment [4], the “Relative biological activity (%) Rhamnolipid production” value is reported as 81* %.

With `CCCCC[C@@H](O)C#Cc1ccc(O)c(OC)c1` [Compound 23b, (R)-4-(3-Hydroxyoct-1-yn-1-yl)-2-methoxyphenol], the “Relative RhlR activity Antagonism” value in experiment [1] (setting [5]) is reported as 27** %. In experiment [1], the “Relative RhIR activity (%) Agonism” value is 3** % and the “Relative RhIR activity (%) Antagonism” value is 27** %. For the same molecule, the activity at 100 µM in experiment [1] (setting [7]) worked out at 3%. For the same molecule, in experiment [1] (setting [8]), the remaining activity at 100 µM worked out at 27%. In experiment [2], the “Relative biological activity (%) Biofilm formation” value is recorded as 79* %. Also, the “Relative biological activity (%) Bacterial growth” value in experiment [3] is reported as 100%. For the same molecule, the “Relative biological activity (%) Rhamnolipid production” value in experiment [4] was 77* %.

Take `CCCCC[C@H](O)C#Cc1ccc(O)c(OC)c1` [Compound 23c, (S)-4-(3-Hydroxyoct-1-yn-1-yl)-2-methoxyphenol]: the “Relative RhlR activity Antagonism” value in experiment [1] (setting [5]) is given as 34** %. Also, in experiment [1], the “Relative RhIR activity (%) Agonism” value is on record as 3** % and the “Relative RhIR activity (%) Antagonism” value was 34** %. In experiment [1] (setting [7]), the activity at 100 µM amounted to 3%. For the same molecule, the remaining activity at 100 µM in experiment [1] (setting [8]) is 34%. In addition, the “Relative biological activity (%) Biofilm formation” value in experiment [2] is on record as 67* %. In experiment [3], the “Relative biological activity (%) Bacterial growth” value was 104%. The “Relative biological activity (%) Rhamnolipid production” value in experiment [4] stood at 86%.

With `CCCCC(=O)C#Cc1ccc(F)c(F)c1` [Compound 31, 1-(3,4-Difluorophenyl)hept-1-yn-3-one], the “Relative RhIR Activity (%) Agonism 100” value in experiment [1] (100 (μM)) was 4** %. In addition, in experiment [1], the “Relative RhIR Activity (%) Agonism 1000” value is recorded as 6** %. Further, the remaining activity at 10 µM in experiment [1] was 29%. The remaining activity at 100 µM in experiment [1] (setting [6]) and in experiment [1] (setting [8]) was 16% each time. In addition, the activity at 100 µM in experiment [1] (setting [7]) amounted to 4%; in experiment [2], 55%; in experiment [3] it was 89%; in experiment [4], 49%. The figures for the activity at 10 µM in experiment [2], in experiment [3] and in experiment [4] were 75%, 100% and 59%, respectively. Further, the “biofilm formation compared with a control (in words)” value in experiment [2] was “significantly inhibited”. Also, in experiment [3], the “effect on cell growth (in words)” value was “slightly inhibited”.

`CCCCCC(=O)C#Cc1ccc(F)c(F)c1` [Compound 32, 1-(3,4-Difluorophenyl)oct-1-yn-3-one]: the “Relative RhIR Activity (%) Agonism 100” value in experiment [1] (100 (μM)) is given as 3** %. The “Relative RhIR Activity (%) Agonism 1000” value in experiment [1] was 5** %. The remaining activity at 10 µM in experiment [1] amounted to 39%. For the same molecule, the remaining activity at 100 µM in experiment [1] (setting [6]) and in experiment [1] (setting [8]) was 17% throughout. For the same molecule, the activity at 100 µM amounted to 3% in experiment [1] (setting [7]), 56% in experiment [2], 88% in experiment [3] and 58% in experiment [4]. Moreover, the activity at 10 µM in experiment [2] came to 71%; in experiment [3], 100%; in experiment [4], 60%. For the same molecule, in experiment [2], the “biofilm formation compared with a control (in words)” value is reported as “significantly inhibited”. Further, the “effect on cell growth (in words)” value in experiment [3] was “slightly inhibited”.

Turning to `CCC[C@@H](O)C#Cc1ccc(F)c(F)c1` [Compound 33b, (R)-1-(3,4-Difluorophenyl)hex-1-yn-3-ol], the “Relative RhIR Activity (%) Agonism 100” value in experiment [1] (100 (μM)) is listed as 3** %. Further, in experiment [1], the “Relative RhIR Activity (%) Agonism 1000” value is 5** %. For the same molecule, the remaining activity at 10 µM in experiment [1] came out at 45%. In addition, the remaining activity at 100 µM in experiment [1] (setting [6]) and in experiment [1] (setting [8]) was 25% each time. In addition, the activity at 100 µM in experiment [1] (setting [7]) is 3%; in experiment [2], 60%; in experiment [3] it was 102%; in experiment [4] it was 48%. The activity at 10 µM in experiment [2] worked out at 74%; in experiment [3] it was 98%; in experiment [4], 60%.

`CCC[C@H](O)C#Cc1ccc(F)c(F)c1` [Compound 33c, (S)-1-(3,4-Difluorophenyl)hex-1-yn-3-ol]: the “Relative RhIR Activity (%) Agonism 100” value in experiment [1] (100 (μM)) was 3** %. Besides, in experiment [1], the “Relative RhIR Activity (%) Agonism 1000” value is recorded as 5** %. Besides, the remaining activity at 10 µM in experiment [1] turned out to be 59%. Moreover, the remaining activity at 100 µM in experiment [1] (setting [6]) and in experiment [1] (setting [8]) was 38% throughout. For the same molecule, the activity at 100 µM came to 3% in experiment [1] (setting [7]), 64% in experiment [2], 99% in experiment [3] and 52% in experiment [4]. Further, the activity at 10 µM in experiment [2] came out at 79%; in experiment [3], 98%; in experiment [4], 59%.
